Measurements from patent US11884675B2, “Heterocyclic compounds as triggering receptor expressed on myeloid cells 2 agonists and methods of use” (AMGEN INC., priority 2020, dated 2024).
Marks after values point to notes of the source that are not given here.

What was measured:
[1] = tested on: hTREM2-CV knock-in transgenic mice; assay: Nanostring nCounter Murine Neuroinflammation panel, pathway analysis (PC1 scores) in hippocampi; assay type: in vivo, mouse
Protocol: (§1) Nanostring analysis of gene expression profiles after administration of Example 192 and a TREM2 agonist antibody in a mouse model
(§2) To assess the impact of TREM2 agonism on cellular processes and pathways, the right hemisphere hippocampi from the acute dosing of the compound of Example 192 and […] Ab-1, as described in Example A3, were analyzed for gene expression changes. Cells from frozen hippocampi were lysed, and RNA was isolated. Key gene expression profiles were analyzed using the nCounter Murine Neuroinflammation panel of 770 genes related to inflammation in the CNS. Results of individual gene expression changes relative to the mean of several housekeeper genes were grouped in pathways of interest and assigned a relative score using the nSolver analysis software.
(§3) Nanostring nSolver software includes a module for Cell Type Profiling that identifies genes linked to cell type in an experiment. […] Pathway analysis was also performed. Genes associated with the adaptive immune response, innate immune response, microglia function, cytokine signalling, and cell cycle were all increased in hippocampi from animals treated with the compound of Example 192 and Ab-1. Table 22 reports the effects of the compound of Example 192 and Ab-1 on these genes, where the values reflect PC1 scores from principal component analysis of the gene set.

hTREM2 [2] = target: T1, hTREM2 (Homo sapiens, UniProt Q9NZC2); assay: TREM2 activity by cellular Syk phosphorylation (AlphaScreen/AlphaLISA) in TREM2/DAP12-HEK cells, used for Examples 1-305; assay type: cell-based; design: expressed in transfected cells; details: HEK293 Cells
How it was run: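 Phospho-Syk (Tyr525/526) over total Syk quantified by AlphaScreen in lysates of cloned TREM2/DAP12-overexpressing HEK293 cells after 45 min compound treatment at room temperature, 1% final DMSO. Values expressed relative to 100 nM anti-TREM2 antibody (positive) and isotype IgG (negative) controls; curves fitted with 4-parameter logistic model.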

[3] = tested on: hTREM2-CV knock-in transgenic mice; assay: IP-10 and CCL2 expression in brain and plasma of mice after acute dosing (TREM2 target engagement, MSD V-PLEX); assay type: in vivo, mouse; details: 24 hours
Protocol: IP-10 expression in the brain and plasma of mice after administration of Example 192 and a TREM2 agonist antibody
To test TREM2 target engagement in an acute dosing paradigm using the compound of Example 192 (5-(4-chloro-2-fluorophenyl)-2,3-dimethyl-7-((2R,4S)-2-(1-methyl-1H-pyrazol-4-yl) tetrahydro-2H-pyran-4-yl)pyrido[3,4-b]pyrazine), hTREM2-CV knock-in transgenic mice were dosed using oral gavage (PO) twice a day (0 and 10 h) followed by sample collection at 24 hours. 6 animals received the compound of Example 192 at 50 mg/kg, and 6 animals received vehicle only (2% Hydroxypropyl Methylcellulose, 1% Tween-80 in PBS). In the same experiment, an anti-hTREM2 Antibody Ab-1 was dosed intraperitoneally (IP) at 100 mg/kg (control was a non-binding matched IgG isotype control). Ab-1 is a murinized version of a human TREM2 agonist antibody, first described as an engineered variant of antibody 13E7 in PCT Application Publication WO2018/195506A1. Ab-1 has an HC according to SEQ ID NO:9, an LC according to SEQ ID NO:10, and exemplifies an anti-TREM2 antibody having the CDRs according to SEQ ID NOS:1-6. Twenty-four hours following the zero-hour dose, mice were humanely euthanized for blood collection prior to cardiac perfusion with PBS and brain harvest. Brains were micro dissected into right and left regions of interest (including the cortex and hippocampus) for independent processing of cytokine and mRNA expression profiles. Whole blood was collected into EDTA-containing vials to prevent coagulation, and centrifuged to isolate the plasma fraction before storage at −80° C. Right and left hemisphere cortices were flash frozen in liquid nitrogen and stored at −80° C. before lysis and homogenization.
Plasma and brain lysates were analyzed for IP-10 (CXCL10) and CCL2 (MCP1) expression using a Meso Scale Discovery (MSD) multi-array reader and V-PLEX kits per manufacturer's protocols.
The upregulation of IP-10 was more robust, and so IP-10 levels were analyzed in plasma from the same experiment.

[4] = tested on: hTREM2-CV knock-in transgenic mice; assay: Nanostring nCounter Murine Neuroinflammation panel, Cell Type Profiling scores in hippocampi; assay type: in vivo, mouse
Protocol: as §1, §2, §3

hTREM2 [5] = target: T1, hTREM2; assay: TREM2 agonist potency by Syk phosphorylation (AlphaLisa) in HEK293T-hTREM2 cells, used for Examples 306-429; assay type: cell-based; design: expressed in transfected cells; host or cells: HEK293T (HEK293T-hTREM2 cells); details: HEK293 Cells
How it was run: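 HEK293T cells expressing human TREM2 and DAP12, plated 20-24 h before, were exposed to compounds for 45 min at room temperature, then lysed. Phospho-Syk read by AlphaLisa; % activation from a standard curve and EC50 from a four-parameter log(agonist) fit.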

[6] = PC1 score, mean score (standard deviation)
[7] = Example 192 50 mg/kg PO at 0 and 10 h, Ab-1 100 mg/kg IP, compared to vehicle-treated animals
[8] = hippocampi after acute dosing, mean score (standard deviation)
[9] = right hemisphere hippocampi, acute dosing as in Example A3

T1 sequence (Q9NZC2 19-230): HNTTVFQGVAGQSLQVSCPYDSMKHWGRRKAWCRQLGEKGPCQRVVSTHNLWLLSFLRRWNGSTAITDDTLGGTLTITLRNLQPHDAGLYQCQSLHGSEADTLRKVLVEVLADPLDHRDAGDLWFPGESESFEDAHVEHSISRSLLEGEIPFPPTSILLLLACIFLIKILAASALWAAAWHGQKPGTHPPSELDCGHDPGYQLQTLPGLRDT
T1 sequence (O43914 22-113 partner): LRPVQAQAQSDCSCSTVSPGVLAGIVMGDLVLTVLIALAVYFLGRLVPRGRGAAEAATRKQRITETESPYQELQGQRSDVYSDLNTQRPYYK

## Cc1nc2cc([C@H]3CCO[C@@H](c4cnn(C)c4)C3)nc(-c3ccc(Cl)cc3F)c2nc1C (single isomer, unassigned) [Example 192]
[1]; [6]
  Pathway Score Adaptive Immune Response: 0.639 (0.929) *
  Pathway Score Cell Cycle: 0.398 (0.414) *
  Pathway Score Cytokine Signaling: 0.180 (0.514) *
  Pathway Score Innate Immune Response: 0.490 (0.674) *
  Pathway Score Microglia Function: 0.345 (0.908) *
[1]; acute dosing as in Example A3
  genes associated with cell cycle: increased
  genes associated with cytokine signalling: increased
  genes associated with microglia function: increased
  genes associated with the adaptive immune response: increased
  genes associated with the innate immune response: increased
hTREM2 [2]
  EC50: ≤ 50 nM
  hTREM2 Emax: ++++ (Emax>250)
[3]; 50 mg/kg PO at 0 and 10 h
  peripheral IP-10 levels in the plasma fraction: no apparent cytokine upregulation
[3]; [7]
  CCL2 (MCP1) in cortical lysates: induced upregulation
  IP-10 (CXCL10) in cortical lysates: induced upregulation
[4]; [8]
  Microglia Score (Cell Type Profiling): 6.82 (0.090) *
  astrocyte score (Cell Type Profiling): 8.86 (0.077)
  neuron score (Cell Type Profiling): 8.81 (0.185)
[4]; [9]
  astrocyte score (Cell Type Profiling): no change
  microglia score (Cell Type Profiling, microglial-associated genes): increase
  neuron score (Cell Type Profiling): no change

## Cc1cnc2c(C34CC(C(F)(F)F)(C3)C4)nc(C3CCOC(c4cnn(C5CC5)c4)C3)nc2n1 (stereo not shown) [Example 360, 2-(2-(1-cyclopropyl-1H-pyrazol-4-yl)tetrahydro-2H-pyran-4-yl)-7-methyl-4-(3-(trifluoromethyl)bicyclo[1.1.1]pentan-1-yl)pteridine]
hTREM2 [5]
  EC50: ≤ 50 nM

## Cc1nc2nc(N3C[C@@H](c4cnn(C5CC5)c4)O[C@@H](C)C3)nc(C34CC(C(F)(F)F)(C3)C4)c2nc1C [Example 410, (2R,6S)-2-(1-cyclopropyl-1H-pyrazol-4-yl)-4-(6,7-dimethyl-4-(3-(trifluoromethyl)bicyclo[1.1.1]pentan-1-yl)pteridin-2-yl)-6-methylmorpholine]
hTREM2 [5]
  EC50: ≤ 50 nM

## Cc1nc2cc(N3C[C@H](C)O[C@@H](c4cnn(C5CC5)c4)C3)nc(C34CC(C(F)(F)F)(C3)C4)c2nc1C (racemic) [Example 378, 2-(1-cyclopropylpyrazol-4-yl)-4-[2,3-dimethyl-5-[3-(trifluoromethyl)-1-bicyclo[1.1.1]pentanyl]pyrido[3,4-b]pyrazin-7-yl]-6-methyl-morpholine]
hTREM2 [5]
  EC50: 50 to 500 nM

## Cc1nc2nc(N3C[C@@H](C)O[C@H](c4cnn(C5CC5)c4)C3)nc(C34CC(C(F)(F)F)(C3)C4)c2nc1C [Example 409, (2R,6R)-2-(1-cyclopropyl-1H-pyrazol-4-yl)-4-(6,7-dimethyl-4-(3-(trifluoromethyl)bicyclo[1.1.1]pentan-1-yl)pteridin-2-yl)-6-methylmorpholine]
hTREM2 [5]
  EC50: 50 to 500 nM

## Cc1cnc2c(-c3ccc(F)cc3F)nc(N3C[C@@H](C)O[C@@H](c4cnn(C5CC5)c4)C3)cc2n1 (racemic) [Example 362, 2-(1-cyclopropyl-1H-pyrazol-4-yl)-4-(5-(2,4-difluorophenyl)-2-methylpyrido[3,4-b]pyrazin-7-yl)-6-methylmorpholine]
hTREM2 [5]
  EC50: ≤ 50 nM

## Cc1nc2nc(N3C[C@@H](C)O[C@@H](c4cnn(C5CC5)c4)C3)nc(C34CC(C(F)(F)F)(C3)C4)c2nc1C [Example 411, (2S,6R)-2-(1-cyclopropyl-1H-pyrazol-4-yl)-4-(6,7-dimethyl-4-(3-(trifluoromethyl)bicyclo[1.1.1]pentan-1-yl)pteridin-2-yl)-6-methylmorpholine]
hTREM2 [5]
  EC50: ≤ 50 nM

## Cc1cnc2c(-c3ccc(F)cc3F)nc([C@H]3CCO[C@@H](c4cnn(C5CC5)c4)C3)nc2n1 [Example 330, 2-[(2R,4S)-2-(1-cyclopropylpyrazol-4-yl)tetrahydropyran-4-yl]-4-(2,4-difluorophenyl)-7-methyl-pteridine]
hTREM2 [5]
  EC50: ≤ 50 nM

## Cc1nc2nc(N3C[C@@H](C)O[C@@H](c4cnn(C5CC5)c4)C3)nc(-c3ccc(Cl)cc3F)c2nc1C (racemic) [Example 373, 4-(4-(4-chloro-2-fluorophenyl)-6,7-dimethylpteridin-2-yl)-2-(1-cyclopropyl-1H-pyrazol-4-yl)-6-methylmorpholine]
hTREM2 [5]
  EC50: ≤ 50 nM

## Cc1cnc2c(-c3ccc(F)cc3F)nc([C@H]3CCO[C@@H](c4cnn(C5CC5)c4)C3)cc2n1 (racemic) [Example 388, 5-(2,4-difluorophenyl)-2-methyl-7-[2-(1-cyclopropylpyrazol-4-yl)tetrahydropyran-4-yl]pyrido[3,4-b]pyrazine]
hTREM2 [5]
  EC50: 50 to 500 nM

## COc1cc(C2CN(c3nc(-c4ccc(Cl)cc4F)c4nc(C)c(C)nc4n3)CCO2)ccn1 (stereo not shown) [Example 314, 4-(4-(4-chloro-2-fluorophenyl)-6,7-dimethylpteridin-2-yl)-2-(2-methoxypyridin-4-yl)morpholine]
hTREM2 [5]
  EC50: ≤ 50 nM

## Cc1cc([C@H]2C[C@H](c3cc4nc(C)c(C)cc4c(-c4ccc(F)cc4F)n3)CCO2)ccn1 (racemic) [Example 400, 5-(2,4-difluorophenyl)-2,3-dimethyl-7-[2-(2-methyl-4-pyridyl)tetrahydropyran-4-yl]-1,6-naphthyridine]
hTREM2 [5]
  EC50: ≤ 50 nM

## Cc1ccc2c(C34CC(C(C)C)(C3)C4)nc([C@H]3CCO[C@@H](c4cnn(C5CC5)c4)C3)nc2n1 [Example 428, 2-((2R,4S)-2-(1-cyclopropyl-1H-pyrazol-4-yl)tetrahydro-2H-pyran-4-yl)-4-(3-isopropylbicyclo[1.1.1]pentan-1-yl)-7-methylpyrido[2,3-d]pyrimidine]
hTREM2 [5]
  EC50: 50 to 500 nM

## Cc1nc2cc(N3CCOC(c4cnn(C5CC5)c4)C3)nc(-c3ccc(F)cc3F)c2nc1C (stereo not shown) [Example 342, 2-(1-cyclopropyl-1H-pyrazol-4-yl)-4-(5-(2,4-difluorophenyl)-2,3-dimethylpyrido[3,4-b]pyrazin-7-yl)morpholine]
hTREM2 [5]
  EC50: ≤ 50 nM
